# Assay results published in patent US20080051387A1, “TETRAHYDROPYRIDO[3,4-D]PYRIMIDINES AND RELATED ANALOGUES” (priority 2006, published 2008).
# Target: T1, chimeric human H3 receptor (Homo sapiens, UniProt Q9Y5N1)
# T1 construct: rat Galpha-i2 (Gnai2, rat); made in house; host or cells: Sf9 insect cells (baculovirus); P2 membranes
# Assay: Chimeric human H3 receptor screening GTP binding assay (inhibition of histamine-stimulated GTP-gamma35S binding, Example 8)
# Format: biochemical
# Settings: symbol ! in Ki; test compound 4 μM, 1 μM histamine; read-out: percent inhibition of agonist-induced GTP-gammaS binding to H3
# Summary of the method: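 Sf9 membranes co-expressing chimeric human H3 receptor and heterotrimeric G-protein (35 μg protein) incubated 60 min at room temperature with 4 μM compound, 1 μM histamine and 125 pM GTP-gamma35S in pH 7.4 buffer with 10 μM GDP. Filter-bound radioactivity, nonspecific (10 μM GTP-gammaS) subtracted, reported as % inhibition of histamine signal.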
# T1 sequence (Q9Y5N1 with tags, fused parts or gaps): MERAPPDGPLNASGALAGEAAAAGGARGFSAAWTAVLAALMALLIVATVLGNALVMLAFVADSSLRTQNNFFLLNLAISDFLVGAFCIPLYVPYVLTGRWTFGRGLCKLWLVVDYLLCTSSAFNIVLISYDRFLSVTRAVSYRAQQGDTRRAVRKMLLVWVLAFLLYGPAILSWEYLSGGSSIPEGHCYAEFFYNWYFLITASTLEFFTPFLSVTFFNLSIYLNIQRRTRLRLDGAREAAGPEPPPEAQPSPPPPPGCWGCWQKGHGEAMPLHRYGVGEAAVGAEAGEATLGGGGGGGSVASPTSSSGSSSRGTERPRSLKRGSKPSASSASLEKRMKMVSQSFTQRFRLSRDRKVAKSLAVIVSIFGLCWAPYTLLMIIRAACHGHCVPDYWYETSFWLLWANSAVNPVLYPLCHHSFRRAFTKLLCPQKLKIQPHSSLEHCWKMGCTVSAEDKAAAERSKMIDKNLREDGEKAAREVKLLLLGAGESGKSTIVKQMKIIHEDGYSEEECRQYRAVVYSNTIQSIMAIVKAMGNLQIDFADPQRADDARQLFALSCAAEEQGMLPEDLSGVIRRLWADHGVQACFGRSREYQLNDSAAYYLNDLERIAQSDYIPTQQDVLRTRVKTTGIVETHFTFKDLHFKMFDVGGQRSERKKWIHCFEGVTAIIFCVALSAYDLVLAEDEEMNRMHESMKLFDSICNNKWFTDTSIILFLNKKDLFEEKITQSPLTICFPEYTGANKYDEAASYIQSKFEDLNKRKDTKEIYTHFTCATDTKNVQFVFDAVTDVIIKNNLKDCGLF
row,SMILES,inhibition at 4 µM [%]
1,"Cc1ccc(CN2CCc3nc(N4CCN(C5CCC5)CC4)ncc3C2)cc1 [Compound 615, 2-(4-cyclobutylpiperazin-1-yl)-6-(4-methylbenzyl)-5,6,7,8-tetrahydropyrido[4,3-d]pyrimidine]",≥ 90
2,"Cn1ccnc1CN1CCc2nc(N3CCN(C4CCC4)CC3)ncc2C1 [Compound 616, 2-(4-cyclobutylpiperazin-1-yl)-6-[(1-methyl-1H-imidazol-2-yl)methyl]-5,6,7,8-tetrahydropyrido[4,3-d]pyrimidine]",≥ 90
3,"c1ccc2c(CN3CCc4nc(N5CCN(C6CCC6)CC5)ncc4C3)ccnc2c1 [Compound 617, 2-(4-cyclobutylpiperazin-1-yl)-6-(quinolin-4-ylmethyl)-5,6,7,8-tetrahydropyrido[4,3-d]pyrimidine]",≥ 90
4,"c1ccc2ncc(CN3CCc4nc(N5CCN(C6CCC6)CC5)ncc4C3)cc2c1 [Compound 618, 2-(4-cyclobutylpiperazin-1-yl)-6-(quinolin-3-ylmethyl)-5,6,7,8-tetrahydropyrido[4,3-d]pyrimidine]",≥ 90
5,"Cc1cccc(CN2CCc3nc(N4CCN(C5CCC5)CC4)ncc3C2)n1 [Compound 619, 2-(4-cyclobutylpiperazin-1-yl)-6-[(6-methylpyridin-2-yl)methyl]-5,6,7,8-tetrahydropyrido[4,3-d]pyrimidine]",≥ 90
6,"c1cncc(CN2CCc3nc(N4CCN(C5CCC5)CC4)ncc3C2)c1 [Compound 620, 2-(4-cyclobutylpiperazin-1-yl)-6-(pyridin-3-ylmethyl)-5,6,7,8-tetrahydropyrido[4,3-d]pyrimidine]",≥ 90

# Now from value to compound:
row,inhibition at 4 µM [%],SMILES
1,≥ 90,"c1cc(N2CCOCC2)ncc1CN1CCc2nc(N3CCN(C4CCC4)CC3)ncc2C1 [Compound 621, 2-(4-cyclobutylpiperazin-1-yl)-6-[(6-morpholin-4-ylpyridin-3-yl)methyl]-5,6,7,8-tetrahydropyrido[4,3-d]pyrimidine]"
2,≥ 90,"Cc1cc(CN2CCc3nc(N4CCN(C5CCC5)CC4)ncc3C2)n(C)n1 [Compound 622, 2-(4-cyclobutylpiperazin-1-yl)-6-[(1,3-dimethyl-1H-pyrazol-5-yl)methyl]-5,6,7,8-tetrahydropyrido[4,3-d]pyrimidine]"
3,≥ 90,"COc1ccccc1CN1CCc2nc(N3CCN(C4CCC4)CC3)ncc2C1 [Compound 623, 2-(4-cyclobutylpiperazin-1-yl)-6-(2-methoxybenzyl)-5,6,7,8-tetrahydropyrido[4,3-d]pyrimidine]"
4,≥ 90,"COc1ccc(CN2CCc3nc(N4CCN(C5CCC5)CC4)ncc3C2)c(OC)c1 [Compound 624, 2-(4-cyclobutylpiperazin-1-yl)-6-(2,4-dimethoxybenzyl)-5,6,7,8-tetrahydropyrido[4,3-d]pyrimidine]"
5,≥ 90,"CC(C)c1ccc(CN2CCc3nc(N4CCN(C5CCC5)CC4)ncc3C2)cc1 [Compound 625, 2-(4-cyclobutylpiperazin-1-yl)-6-(4-isopropylbenzyl)-5,6,7,8-tetrahydropyrido[4,3-d]pyrimidine]"
6,≥ 90,"CC(C)CCN1CCc2nc(N3CCN(C4CCC4)CC3)ncc2C1 [Compound 626, 2-(4-cyclobutylpiperazin-1-yl)-6-(3-methylbutyl)-5,6,7,8-tetrahydropyrido[4,3-d]pyrimidine]"
7,≥ 90,"CCCN1CCc2nc(N3CCN(C4CCC4)CC3)ncc2C1 [Compound 627, 2-(4-cyclobutylpiperazin-1-yl)-6-propyl-5,6,7,8-tetrahydropyrido[4,3-d]pyrimidine]"
8,≥ 90,"CCCCN1CCc2nc(N3CCN(C4CCC4)CC3)ncc2C1 [Compound 628, 6-butyl-2-(4-cyclobutylpiperazin-1-yl)-5,6,7,8-tetrahydropyrido[4,3-d]pyrimidine]"
9,≥ 90,"CCCCCN1CCc2nc(N3CCN(C4CCC4)CC3)ncc2C1 [Compound 629, 2-(4-cyclobutylpiperazin-1-yl)-6-pentyl-5,6,7,8-tetrahydropyrido[4,3-d]pyrimidine]"
